Experimental data taken from US5990146A, “Benzimidazoles for inhibiting protein tyrosine kinase mediated cellular proliferation” (Warner-Lambert Company, priority 1998, dated 1999).
Structures can show the parent of a compound that is named as a salt.

Key:
Assay type in all cases: biochemical
[1] = target: T1, PDGF receptor tyrosine kinase (mouse PDGF-β) (Mus musculus, UniProt P05622); test: PDGFr tyrosine kinase assay (poly glutamate-tyrosine phosphorylation); conditions: Table 1; 10 minutes at 25° C.
T1 construct: PCR primers are designed to amplify a fragment of DNA that codes for the intracellular tyrosine kinase domain; made in house; host or cells: Sf9 insect cells (baculovirus), cell lysate
Protocol: Platelet Derived Growth Factor Receptor (PDGFr) and Fibroblast Growth Factor Receptor (FGFr)
Full length cDNAs for the mouse PDGF-β and human FGF-1 (flg) receptor tyrosine kinases were obtained from J. Escobedo and are prepared as described in J. Biol. Chem., 262: 1482-1487 (1991). PCR primers are designed to amplify a fragment of DNA that codes for the intracellular tyrosine kinase domain. The fragment is melded into a baculovirus vector, cotransfected with AcMNPV DNA, and the recombinant virus isolated. SF9 insect cells are infected with the virus to overexpress the protein, and the cell lysate is used for the assay.
The assay is performed in 96-well plates (100 μL/incubation/well), and conditions are optimized to measure the incorporation of ^32 p from [γ^32 P]-ATP into a glutamate-tyrosine copolymer substrate. Briefly, to each well is added 82.5 μL of incubation buffer containing 25 mM Hepes (pH 7.0), 150 mM NaCl, 0.1% Triton X-100, 0.2 mM PMSF, 0.2 mM sodium vanadate, 10 mM manganese chloride, and 750 μg/mL of poly (4:1) glutamate-tyrosine followed by 2.5 μL of inhibitor and 5 μL of enzyme lysate (7.5 μg/μL FGFR-TK or 6.0 μg/μL PDGFR-TK) to initiate the reaction. Following a 10 minute incubation at 25° C., 10 μL of [γ^32 P]-ATP (0.4 μCi plus 50 μM ATP) is added to each well and samples are incubated for an additional 10 minutes at 25° C. The reaction is terminated by the addition of 100 μL of 30% trichloroacetic acid (TCA) containing 20 mM sodium pyrophosphate and precipitation of material onto glass fiber filter mats (Wallac). Filters are washed 3 times with 15% TCA containing 100 mM sodium pyrophosphate and the radioactivity retained on the filters counted in a Wallac 1250 Betaplate reader. Nonspecific activity is defined as radioactivity retained on the filters following incubation of samples with buffer alone (no enzyme). Specific enzymatic activity is defined as total activity (enzyme plus buffer) minus nonspecific activity.

insulin receptor (INSr) = target: T2, insulin receptor (INSr) (Homo sapiens, UniProt P06213); test: Insulin receptor kinase assay; conditions: Table 1; as for EGF receptor with 10 mM manganese chloride
T2 construct: An assay using the intracellular kinase domains of insulin receptor (INSr) is performed

c-Src = target: T3, c-Src (Homo sapiens, UniProt P12931); test: c-Src kinase assay; conditions: Table 1; 5 μM ATP, room temperature, 10 minutes
T3 construct: made in house; host or cells: baculovirus infected insect cells
Protocol: c-Src kinase is purified from baculovirus infected insect cell lysates using an antipeptide monoclonal antibody directed against the N-terminal 2-17 amino acids as described previously by Fry, et al, Anticancer Drug Design. 9: 331-351 (1994). […] At the end of the lysate incubation, the beads are rinsed 3 times in lysis buffer, resuspended in lysis buffer containing 10% glycerol, and frozen. These latex beads are thawed, rinsed 3 times in assay buffer which is comprised of 40 mM tris pH 7.5, 5 mM magnesium chloride, and suspended in the same buffer. […] The reaction is started at room temperature by addition of the ATP and quenched 10 minutes later by the addition of 125 μL of 30% TCA, 0.1 M sodium pyrophosphate for 15 minutes on ice. The plate is then filtered and the wells washed with two 250-μL aliquots of 15% TCA, 0.1 M pyrophosphate. The filters are punched, counted in a liquid scintillation counter, and the data examined for inhibitory activity in comparison to a known inhibitor such as erbstatin. The method is described more fully in J. Med. Chem., 37: 598-609 (1994).

[2] = target: T4, FGF receptor tyrosine kinase (human FGF-1 (flg)) (Homo sapiens, UniProt P11362); test: FGFr tyrosine kinase assay (poly glutamate-tyrosine phosphorylation); conditions: Table 1; 10 minutes at 25° C.
T4 construct: PCR primers are designed to amplify a fragment of DNA that codes for the intracellular tyrosine kinase domain; made in house; host or cells: Sf9 insect cells (baculovirus), cell lysate
Protocol: Platelet Derived Growth Factor Receptor (PDGFr) and Fibroblast Growth Factor Receptor (FGFr) Full length cDNAs for the mouse PDGF-β and human FGF-1 (flg) receptor tyrosine kinases were obtained from J. Escobedo and are prepared as described in J. Biol. Chem., 262: 1482-1487 (1991). PCR primers are designed to amplify a fragment of DNA that codes for the intracellular tyrosine kinase domain. The fragment is […] into a baculovirus vector, cotransfected with AcMNPV DNA, and the recombinant virus isolated. SF9 insect cells are infected with the virus to overexpress the protein, and the cell lysate is used for the […] and FGFr The assay is performed in 96-well plates (100 μL/incubation/well), and conditions are optimized to measure the incorporation of ^32 p from [γ^32 P]-ATP into a glutamate-tyrosine copolymer substrate. […] The reaction is terminated by the addition of 100 μL of 30% trichloroacetic acid (TCA) containing 20 mM sodium pyrophosphate and precipitation of material onto glass fiber filter mats (Wallac). Filters are washed 3 times with 15% TCA containing 100 mM sodium pyrophosphate and the radioactivity retained on the filters counted in a Wallac 1250 Betaplate reader. Nonspecific activity is defined as radioactivity retained on the filters following incubation of samples with buffer alone (no enzyme). Specific enzymatic activity is defined as total activity (enzyme plus buffer) minus nonspecific activity.

T2 sequence (P06213 1023-1298 limits assumed, species assumed): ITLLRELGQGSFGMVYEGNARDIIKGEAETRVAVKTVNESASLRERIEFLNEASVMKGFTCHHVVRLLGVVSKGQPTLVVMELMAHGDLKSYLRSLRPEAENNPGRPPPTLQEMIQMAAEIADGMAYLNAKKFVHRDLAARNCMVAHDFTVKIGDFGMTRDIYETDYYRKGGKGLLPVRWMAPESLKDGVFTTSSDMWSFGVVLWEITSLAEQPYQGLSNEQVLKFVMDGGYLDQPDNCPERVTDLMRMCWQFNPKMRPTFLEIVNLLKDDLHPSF
T3 sequence (P12931 whole entry, species assumed): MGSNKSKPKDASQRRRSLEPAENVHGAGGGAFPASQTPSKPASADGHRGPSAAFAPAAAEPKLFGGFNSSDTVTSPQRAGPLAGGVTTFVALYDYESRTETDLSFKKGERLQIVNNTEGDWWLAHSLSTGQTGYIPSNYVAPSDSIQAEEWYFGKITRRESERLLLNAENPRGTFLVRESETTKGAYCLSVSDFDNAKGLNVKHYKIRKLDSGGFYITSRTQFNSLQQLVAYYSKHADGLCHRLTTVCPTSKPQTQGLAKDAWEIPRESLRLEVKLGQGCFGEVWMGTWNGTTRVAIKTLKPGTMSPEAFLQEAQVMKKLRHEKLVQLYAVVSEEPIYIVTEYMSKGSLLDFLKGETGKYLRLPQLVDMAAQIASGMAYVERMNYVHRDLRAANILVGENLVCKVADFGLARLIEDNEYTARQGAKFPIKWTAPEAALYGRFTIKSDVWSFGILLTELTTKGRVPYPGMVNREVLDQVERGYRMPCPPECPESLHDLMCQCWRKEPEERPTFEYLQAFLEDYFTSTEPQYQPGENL
T4 sequence (P11362 478-767 limits assumed): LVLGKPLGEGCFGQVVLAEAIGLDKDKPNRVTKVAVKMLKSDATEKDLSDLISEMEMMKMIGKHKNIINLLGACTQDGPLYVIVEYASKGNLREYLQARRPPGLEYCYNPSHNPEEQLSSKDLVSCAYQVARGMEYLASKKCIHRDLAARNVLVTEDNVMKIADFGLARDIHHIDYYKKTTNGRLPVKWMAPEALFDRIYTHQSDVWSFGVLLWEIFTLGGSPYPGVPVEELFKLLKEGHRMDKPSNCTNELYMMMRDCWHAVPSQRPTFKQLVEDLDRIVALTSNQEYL
T1 sequence (P05622 599-961 limits assumed): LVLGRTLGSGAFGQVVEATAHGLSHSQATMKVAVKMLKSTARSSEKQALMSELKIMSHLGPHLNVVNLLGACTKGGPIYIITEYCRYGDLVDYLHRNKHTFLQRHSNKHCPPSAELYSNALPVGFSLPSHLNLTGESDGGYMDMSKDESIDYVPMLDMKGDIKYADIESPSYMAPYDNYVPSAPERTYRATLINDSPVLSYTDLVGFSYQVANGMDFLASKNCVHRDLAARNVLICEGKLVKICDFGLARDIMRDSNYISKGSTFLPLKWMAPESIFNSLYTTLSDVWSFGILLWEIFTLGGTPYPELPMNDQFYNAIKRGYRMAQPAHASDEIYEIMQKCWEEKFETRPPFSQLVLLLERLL

## c1ccc(-n2cnc3cc(OCC4CO4)ccc32)cc1 (racemic) [Example 34, 5-(2,3-Epoxypropoxy)-1-phenylbenzimidazole]
[1]
  IC50: 0.3 µM

## Oc1cccc(-n2cnc3ccccc32)c1 [Example 2, 1-(3-Hydroxyphenyl)benzimidazole Hydrochloride]
[1]
  IC50: 3.8 µM
Insulin receptor (INSr)
  IC50: > 50 µM
c-Src
  IC50: > 50 µM
[2]
  IC50: 50 µM

## O=Cc1cccc(-n2cnc3ccccc32)c1 [Example 4, 1-(3-Formylphenyl)benzimidazole Hydrochloride]
[1]
  IC50: 6.8 µM
Insulin receptor (INSr)
  IC50: > 50 µM
c-Src
  IC50: > 50 µM
[2]
  IC50: > 50 µM

## COc1ccc(-n2cnc3ccccc32)cc1 [Example 5, 1-(4-Methoxyphenyl)benzimidazole Hydrochloride]
[1]
  IC50: 12 µM
Insulin receptor (INSr)
  IC50: > 50 µM
c-Src
  IC50: > 50 µM

## Oc1ccc(-n2cnc3ccccc32)cc1 [Example 6, 1-(4-Hydroxyphenyl)benzimidazole Hydrochloride]
[1]
  IC50: 1.8 µM
Insulin receptor (INSr)
  IC50: > 50 µM
c-Src
  IC50: > 50 µM
[2]
  IC50: 5.8 µM

## O=Cc1ccc(-n2cnc3ccccc32)cc1 [Example 9, 1-(4-Formylphenyl)benzimidazole]
[1]
  IC50: 13.5 µM
c-Src
  IC50: > 50 µM

## c1ccc2c(c1)ncn2-c1ccncc1 [Example 10, 1-(4-Pyridinyl)benzimidazole dihydrochloride]
[1]
  IC50: 12.3 µM
Insulin receptor (INSr)
  IC50: > 50 µM
c-Src
  IC50: > 50 µM
[2]
  IC50: 50 µM

## Clc1ccc2c(c1)ncn2-c1ccccc1 [Example 15, 5-Chloro-1-phenylbenzimidazole]
[1]
  IC50: 4 µM
[2]
  IC50: 51 µM

## CC(=O)c1ccc2c(c1)ncn2-c1ccccc1 [Example 20, 5-Acetyl-1-phenylbenzimidazole]
[1]
  IC50: 0.9 µM
[2]
  IC50: 14 µM

## c1ccc(-n2cnc3cnccc32)cc1 [Example 22, 1-Phenylimidazo-1H-imidazol[4,5-c]pyridine Hydrochloride]
[1]
  IC50: 10 µM
Insulin receptor (INSr)
  IC50: > 50 µM
c-Src
  IC50: > 50 µM
[2]
  IC50: 49 µM

## CC(=O)Nc1ccc2c(c1)ncn2-c1ccccc1 [Example 23, 5-Acetamido-1-phenylbenzimidazole Hydrochloride]
[1]
  IC50: 3.3 µM
Insulin receptor (INSr)
  IC50: > 50 µM
c-Src
  IC50: < 50 µM
[2]
  IC50: 32 µM

## CCC(=O)Nc1ccc2c(c1)ncn2-c1ccccc1 [Example 24, 5-Propionamido-1-phenylbenzimidazole Hydrochloride]
[1]
  IC50: 2.4 µM
Insulin receptor (INSr)
  IC50: > 50 µM
c-Src
  IC50: > 50 µM
[2]
  IC50: 41 µM

## C=CC(=O)Nc1ccc2c(c1)ncn2-c1ccccc1 [Example 25, 5-Acrylamido-1-phenylbenzimidazole]
[1]
  IC50: 5.3 µM
c-Src
  IC50: > 50 µM
[2]
  IC50: 37 µM

## CCOc1ccc2c(c1)ncn2-c1ccccc1 [Example 28, 5-Ethoxy-1-phenylbenzimidazole Hydrochloride]
[1]
  IC50: 0.2 µM
Insulin receptor (INSr)
  IC50: > 50 µM
[2]
  IC50: 26 µM

## CCCOc1ccc2c(c1)ncn2-c1ccccc1 [Example 29, 1-Phenyl-5-propoxybenzimidazole hydrochloride]
[1]
  IC50: 0.3 µM
Insulin receptor (INSr)
  IC50: > 50 µM
c-Src
  IC50: > 50 µM
[2]
  IC50: 35 µM

## CC(C)Oc1ccc2c(c1)ncn2-c1ccccc1 [Example 30, 5-Isopropoxy-1-phenylbenzimidazole Hydrochloride]
[1]
  IC50: < 50 µM
Insulin receptor (INSr)
  IC50: > 50 µM

## CCCCOc1ccc2c(c1)ncn2-c1ccccc1 [Example 31, 5-Butoxy-1-phenylbenzimidazole Hydrochloride]
Insulin receptor (INSr)
  IC50: > 50 µM

## OCC(O)COc1ccc2c(c1)ncn2-c1ccccc1 (stereo not drawn) [Example 33, 5-(2,3-Dihydroxypropoxy)-1-phenylbenzimidazole Hydrochloride]
[1]
  IC50: 0.3 µM
[2]
  IC50: 15 µM

## Clc1ccc2ncn(-c3ccccc3)c2c1 [Example 42, 6-Chloro-1-phenylbenzimidazole]
[1]
  IC50: 5.4 µM

## CCOc1ccc2ncn(-c3ccccc3)c2c1 [Example 44, 6-Ethoxy-1-phenylbenzimidazole]
[1]
  IC50: 9.6 µM
[2]
  IC50: > 50 µM

## COc1cc2ncn(-c3ccccc3)c2cc1OC [Example 46, 5,6-Dimethoxy-1-phenylbenzimidazole Hydrochloride]
Insulin receptor (INSr)
  IC50: > 50 µM
c-Src
  IC50: 40 µM
[2]
  IC50: 25 µM

## Oc1cc2ncn(-c3ccccc3)c2cc1O [Example 47, 5,6-Dihydroxy-1-phenylbenzimidazole Hydrochloride]
[1]
  IC50: 2.3 µM
Insulin receptor (INSr)
  IC50: > 50 µM
[2]
  IC50: 11 µM

## c1ccc(-n2cnc3cc4c(cc32)OCO4)cc1 [Example 48, 5,6-Methylenedioxy-1-phenylbenzimidazole Hydrochloride]
Insulin receptor (INSr)
  IC50: > 50 µM
[2]
  IC50: 27 µM

## COc1cc2ncn(-c3ccccc3)c2cc1C [Example 49, 5-Methoxy-6-methyl-1-phenylbenzimidazole Hydrochloride]
Insulin receptor (INSr)
  IC50: > 50 µM

## Cc1cc2c(cc1O)ncn2-c1ccccc1 [Example 50, 5-Hydroxy-6-methyl-1-phenylbenzimidazole Hydrochloride]
Insulin receptor (INSr)
  IC50: > 50 µM

## O=C(O)c1cc2c(cc1O)ncn2-c1ccccc1 [Example 52, 5-Hydroxy-1-phenylbenzimidazole-6-carboxylic acid Hydrobromide]
[2]
  IC50: 22 µM

## COc1cc2ncn(-c3ccccc3)c2cc1C=O [Example 54, 5-Methoxy-1-phenylbenzimidazole-6-carboxaldehyde Hydrochloride]
[1]
  IC50: 1.1 µM
Insulin receptor (INSr)
  IC50: > 50 µM

## COc1ccc2c(c1)ncn2-c1ccsc1 [Example 56, 5-Methoxy-1-(3-thienyl)benzimidazole Hydrochloride]
[1]
  IC50: 0.7 µM
c-Src
  IC50: > 50 µM
[2]
  IC50: 6.5 µM

## OCCCCOc1ccc2c(c1)ncn2-c1ccccc1 [Example 57, 5-(4-Hydroxybutoxy)-1-phenylbenzimidazole Hydrochloride]
[1]
  IC50: 0.5 µM
c-Src
  IC50: > 50 µM
[2]
  IC50: 25 µM

## CN(C)CCCCOc1ccc2c(c1)ncn2-c1ccccc1 [Example 58, 5-[4-(N,N-Dimethylamino)butoxy]-1-phenylbenzimidazole Dihydrochloride]
[1]
  IC50: 0.2 µM
c-Src
  IC50: 50 µM
[2]
  IC50: 6 µM

## COc1ccc2c(ncn2-c2ccccc2)c1OC [Example 60, 4,5-Dimethoxy-1-phenylbenzimidazole Hydrochloride]
c-Src
  IC50: > 50 µM

## Oc1ccc2c(ncn2-c2ccccc2)c1O [Example 61, 4,5-Dihydroxy-1-phenylbenzimidazole Hydrochloride]
[2]
  IC50: 1.9 µM

## COc1c(O)ccc2c1ncn2-c1ccccc1 [Example 62, 5-Hydroxy-4-methoxy-1-phenylbenzimidazole Hydrochloride]
[1]
  IC50: 50 µM
[2]
  IC50: 50 µM

## COc1ccc2c(ncn2-c2ccccc2)c1O [Example 63, 4-Hydroxy-5-methoxy-1-phenylbenzimidazole Hydrochloride]
[1]
  IC50: < 50 µM
c-Src
  IC50: 40 µM
